Source: patent US11571423B2, “Small molecule modulators of human sting” (Curadev Pharma Limited, priority 2017, dated 2023)
Where a name gives a salt, the structure may show the parent alone.

Columns and labels:
hSTING(R232) = hSTING(R232) (Homo sapiens, UniProt Q86WV6, H232R); assay: Luciferase reporter assay in HEK293T-hSTING-Luciferase cells, R232 (wild type) human STING; format: cell-based; conditions: 20 hr stimulation, read-out: R232 human activity (EC50 range)
Procedure, shortened: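 Clonal HEK293T cells stably expressing STING from a pUNO-1 plasmid plus an ISRE/ISG54-driven secreted luciferase reporter; 5×10^5 cells stimulated with compound for 20 hr. Supernatant luciferase read by luminescence, giving fold-induction over baseline and EC50.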

[1] = target: cynomolgus monkey STING protein (Macaca fascicularis, UniProt A0A2R3XZA6); assay: Luciferase reporter assay, cynomolgus monkey STING overexpressed in HEK293T cells; format: cell-based; conditions: cynomolgus monkey STING overexpressed in HEK293T cells; read-out: Cynomolgus monkey STING activity (EC50 range)
Chain of cynomolgus monkey STING protein (A0A2R3XZA6 entry or part of it): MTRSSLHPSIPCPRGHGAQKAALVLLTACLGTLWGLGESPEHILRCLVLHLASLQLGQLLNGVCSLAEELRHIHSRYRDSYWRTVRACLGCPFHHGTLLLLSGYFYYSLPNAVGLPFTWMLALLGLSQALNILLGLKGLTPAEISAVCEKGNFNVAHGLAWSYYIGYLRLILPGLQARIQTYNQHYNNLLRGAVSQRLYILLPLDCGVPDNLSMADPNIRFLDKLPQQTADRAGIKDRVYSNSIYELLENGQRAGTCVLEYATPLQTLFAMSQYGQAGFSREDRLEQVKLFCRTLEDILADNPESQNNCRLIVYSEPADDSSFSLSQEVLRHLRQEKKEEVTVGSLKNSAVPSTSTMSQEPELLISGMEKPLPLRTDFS
Procedure, shortened: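 HEK293T cells overexpressing cynomolgus STING with a secreted luciferase reporter were stimulated with compound for 20 hr. Supernatant reporter activity was then measured by Quanti-Luc luminescence, and EC50 values were derived.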

hSTING(H232) = hSTING(H232) (Homo sapiens, UniProt Q86WV6); assay: Luciferase reporter assay in HEK293T-hSTING-Luciferase cells, H232/REF polymorph; format: cell-based; conditions: H232/REF polymorph of human STING, EC50 range class
Chain of hSTING(H232) (Q86WV6 whole entry): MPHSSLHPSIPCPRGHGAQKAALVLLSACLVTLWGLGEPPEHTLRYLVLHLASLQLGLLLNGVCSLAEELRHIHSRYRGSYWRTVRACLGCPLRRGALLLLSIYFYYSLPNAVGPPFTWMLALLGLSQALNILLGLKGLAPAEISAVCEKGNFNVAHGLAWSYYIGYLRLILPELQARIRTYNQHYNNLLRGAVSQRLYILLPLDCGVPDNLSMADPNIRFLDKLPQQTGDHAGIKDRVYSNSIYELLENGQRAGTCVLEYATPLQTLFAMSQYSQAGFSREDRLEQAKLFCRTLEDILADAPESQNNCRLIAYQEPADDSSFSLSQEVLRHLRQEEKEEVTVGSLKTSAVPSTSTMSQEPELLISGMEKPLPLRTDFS
From the text: (§1) Stable Cell Line Generation • a) Stable STING expressing cells—Stable HEK293T STING-expressing cell lines were generated using plasmids purchased from Invivogen, CA, USA, that contain STING cDNA cloned into the pUNO-1 vector under hEF1-HTLV promoter and containing the Blasticidin selection cassette. The plasmids hSTING(R232), hSTING(H232), hSTING(HAQ) were directly procured from Invivogen while hSTING (AQ) and hSTING (Q) were derived from hSTING(HAQ) and hSTING (R232) plasmids respectively by using a PCR based site directed mutagenesis method. These vectors were individually transfected into HEK293T cells using Lipofectamine (Invitrogen) and transfected cells were selected under Blasticidin selection. These transfected cells were further subjected to clonal selection using the limiting dilution method to obtain clonally pure populations of HEK cells transfected with each of the above mentioned human STING variants. Only those clones were selected in which ligand independent activation of STING was minimal. • b) Stable Luciferase reporter gene expressing cells—Stable HEK293T Luciferase reporter gene expressing cell lines were generated using pCDNA4 plasmids under an IRF-inducible promoter. This promoter is comprised of five tandem interferon-stimulated response elements (ISRE) fused to an ISG54 minimal promoter. This vector was transfected into HEK293T cells using Lipofectamine (Invitrogen) and transfected cells were selected under Zeocin selection. These transfected cells were further subjected to clonal selection using the limiting dilution method to obtain clonally pure populations of HEK cells transfected the Luciferase reporter construct. Only those clones were selected in which ligand independent induction of luciferase was minimal.
(§2) 5×10^5 clonally selected HEK293T-hSTING-Luciferase cells were seeded in 384-well plates in growth medium and stimulated with novel compounds. After 20 hr of stimulation supernatant were removed and secretary reporter gene activity were measured using the Quanti-Luc detection system (Invivogen) on a Spectramax i3X luminometer.
(§3) In the tables below, EC50 value ranges for exemplary compounds are given.
(§4) Single nucleotide polymorphisms of human STING have been described, which can affect the functional potency of compounds that modulate the activity of the STING protein (see Yi et. al., PLoS One, October 2013, 8(10), e77846). The 5 major polymorphisms of human STING are shown in FIG. 1, with their prevalence in human populations indicated.
(§5) The tables below show the potency of selected compounds of the invention against the most common polymorphisms.

hSTING(HAQ) = hSTING(HAQ) (Homo sapiens, UniProt Q86WV6, G230A/H232R/R293Q/R71H); assay: Luciferase reporter assay in HEK293T-hSTING-Luciferase cells, HAQ polymorph; format: cell-based; conditions: HAQ polymorph of human STING, EC50 range class
Chain of hSTING(HAQ) (Q86WV6 whole entry R71H/G230A/H232R/R293Q): as the sequence (Q86WV6 whole entry) above, with R71H, G230A, H232R, R293Q counted along it
From the text: as §1, §2, §3, §4, §5

IRF pathway = assay: Reporter gene expression assay in THP1-Dual cells, IRF axis (secreted Lucia luciferase); format: cell-based, human; conditions: Homo sapiens, 20 hr stimulation, EC50 range class, read-out: THP-IRF activity
Procedure: (§6) THP1-Dual™ cells (Invivogen) were derived from the human THP-1 monocyte cell line by stable integration of two inducible reporter constructs. As a result, THP1-Dual™ cells allow the simultaneous study of the NF-κB pathway, by monitoring the activity of secreted SEAP, and the IRF pathway, by assessing the activity of a secreted luciferase (Lucia). 5×10^5 THP1-Dual™ cells were seeded in 384-well plates in growth medium and stimulated with novel compounds. After 20 hr of stimulation supernatants were removed and reporter proteins were readily measured in the cell culture supernatant using QUANTI-Blue™ (Invivogen), a SEAP detection reagent, and QUANTI-Luc™ (Invivogen), a luciferase detection reagent on a Spectramax i3X luminometer.
(§7) EC50 value ranges for exemplary compounds tested in the above assay are given.

NF-κB pathway = assay: Reporter gene expression assay in THP1-Dual cells, NFkB axis (secreted SEAP); format: cell-based, human; conditions: Homo sapiens, 20 hr stimulation, EC50 range class, read-out: THP-NFκB activity
Procedure: as §6, §7

Chain of hSTING(R232) (Q86WV6 whole entry H232R): as the sequence (Q86WV6 whole entry) above, with H232R counted along it

Row | Structure (SMILES) | EC50 (hSTING(R232)) | EC50 [1] | EC50 (hSTING(H232)) | EC50 (hSTING(HAQ)) | EC50 (IRF pathway) | EC50 (NF-κB pathway)
1 | C[C@H]1c2ccc(C(=O)NCc3c(F)cc(F)cc3F)cc2N(Cc2c(F)cccc2Cl)C(=O)N1C (single isomer, unassigned) [Example 76] | < 1000 nM | < 1000 nM | < 1000 nM | < 1000 nM | < 1000 nM | < 1000 nM
2 | Cc1ncc(Cl)c(CN2C(=O)N(C)[C@@H](C)c3ccc(C(=O)NCc4c(F)cc(F)cc4F)cc32)c1F [Example 77, (S)-1-((5-chloro-3-fluoro-2-methylpyridin-4-yl)methyl)-3,4-dimethyl-2-oxo-N-(2,4,6-trifluorobenzyl)-1,2,3,4-tetrahydroquinazoline-7-carboxamide] | < 1000 nM | < 1000 nM | < 1000 nM | < 1000 nM | < 1000 nM | < 1000 nM
3 | C[C@H]1c2ccc(C(=O)NCc3c(F)cc(F)cc3F)cc2N(Cc2c(F)cc(O)cc2F)C(=O)N1C [Example 78, (S)-1-(2,6-difluoro-4-hydroxybenzyl)-3,4-dimethyl-2-oxo-N-(2,4,6-trifluorobenzyl)-1,2,3,4-tetrahydroquinazoline-7-carboxamide] | < 1000 nM | < 1000 nM | < 1000 nM | < 1000 nM | < 1000 nM | < 1000 nM
4 | C[C@H]1c2ccc(C(=O)NCc3c(F)cc(F)cc3F)cc2N(Cc2c(F)cc(OCCO)cc2F)C(=O)N1C [Example 80, (S)-1-(2,6-Difluoro-4-(2-hydroxyethoxy)benzyl)-3,4-dimethyl-2-oxo-N-(2,4,6-trifluorobenzyl)-1,2,3,4-tetrahydroquinazoline-7-carboxamide] | < 1000 nM | < 1000 nM | < 1000 nM | < 1000 nM | 1000 to 10000 nM | 1000 to 10000 nM
5 | C[C@H]1c2ccc(C(=O)NCc3c(F)cc(F)cc3F)cc2N(Cc2c(F)cc(OCCCO)cc2F)C(=O)N1C [Example 81, (S)-1-(2,6-difluoro-4-(3-hydroxypropoxy)benzyl)-3,4-dimethyl-2-oxo-N-(2,4,6-trifluorobenzyl)-1,2,3,4-tetrahydroquinazoline-7-carboxamide] | < 1000 nM | < 1000 nM | < 1000 nM | < 1000 nM | < 1000 nM | < 1000 nM
6 | CC(=O)Nc1ccc(COC(=O)Oc2cc(F)c(CN3C(=O)N(C)[C@@H](C)c4ccc(C(=O)NCc5c(F)cc(F)cc5F)cc43)c(F)c2)cc1 [Example 85, (S)-4-Acetamidobenzyl-(4-((3,4-dimethyl-2-oxo-7-((2,4,6-trifluorobenzyl)carbamoyl)-3,4-dihydroquinazolin-1(2H)-yl)methyl)-3,5-difluorophenyl) carbonate] | < 1000 nM | < 1000 nM | < 1000 nM | < 1000 nM | < 1000 nM | < 1000 nM
7 | C[C@H]1c2ccc(C(=O)NCc3c(F)cc(F)cc3F)cc2N(Cc2c(F)ccc(O)c2Cl)C(=O)N1C [Example 87, (S)-1-(2-Chloro-6-fluoro-3-hydroxybenzyl)-3,4-dimethyl-2-oxo-N-(2,4,6-trifluorobenzyl)-1,2,3,4-tetrahydroquinazoline-7-carboxamide] | < 1000 nM | < 1000 nM | < 1000 nM | < 1000 nM | < 1000 nM | < 1000 nM
8 | COc1ccc(F)c(CN2C(=O)N(C)[C@@H](C)c3ccc(C(=O)NCc4c(F)cc(F)cc4F)cc32)c1Cl [Example 88, (S)-1-(2-Chloro-6-fluoro-3-methoxybenzyl)-3,4-dimethyl-2-oxo-N-(2,4,6-trifluorobenzyl)-1,2,3,4-tetrahydroquinazoline-7-carboxamide] | < 1000 nM | < 1000 nM | < 1000 nM | < 1000 nM | < 1000 nM | < 1000 nM
9 | C[C@H]1c2ccc(C(=O)NCc3c(F)cc(F)cc3F)cc2N(Cc2c(F)ccc(OCCO)c2Cl)C(=O)N1C [Example 137, (S)-1-(2-Chloro-6-fluoro-3-(2-hydroxyethoxy)benzyl)-3,4-dimethyl-2-oxo-N-(2,4,6-trifluorobenzyl)-1,2,3,4-tetrahydroquinazoline-7-carboxamide] | < 1000 nM | < 1000 nM | < 1000 nM | < 1000 nM | < 1000 nM | < 1000 nM
10 | C[C@H]1c2ccc(C(=O)NCc3c(F)cc(F)cc3F)cc2N(Cc2c(F)ccc(OCCCO)c2Cl)C(=O)N1C [Example 138, (S)-1-(2-Chloro-6-fluoro-3-(3-hydroxypropoxy)benzyl)-3,4-dimethyl-2-oxo-N-(2,4,6-trifluorobenzyl)-1,2,3,4-tetrahydroquinazoline-7-carboxamide] | < 1000 nM | < 1000 nM | < 1000 nM | < 1000 nM | < 1000 nM | < 1000 nM
11 | CC1c2ccc(C(=O)NCc3c(F)cc(F)cc3F)cc2N(Cc2c(O)cccc2F)C(=O)N1C (stereo not shown) [Example 171, 1-(2-fluoro-6-hydroxybenzyl)-3,4-dimethyl-2-oxo-N-(2,4,6-trifluorobenzyl)-1,2,3,4-tetrahydroquinazoline-7-carboxamide] | – | < 1000 nM | < 1000 nM | < 1000 nM | < 1000 nM | < 1000 nM
12 | CC1c2ccc(C(=O)NCc3c(F)cc(F)cc3F)cc2N(Cc2c(F)cccc2F)C(=O)N1C (stereo not shown) [Example 206, 1-(2,6-difluorobenzyl)-3,4-dimethyl-2-oxo-N-(2,4,6-trifluorobenzyl)-1,2,3,4-tetrahydroquinazoline-7-carboxamide] | – | < 1000 nM | < 1000 nM | < 1000 nM | < 1000 nM | < 1000 nM
13 | C[C@H]1c2ccc(C(=O)NCc3c(F)cc(F)cc3F)cc2N(Cc2c(F)cccc2NCCO)C(=O)N1C [Example 264, (S)-1-(2-fluoro-6-((2-hydroxyethyl)amino)benzyl)-3,4-dimethyl-2-oxo-N-(2,4,6-trifluorobenzyl)-1,2,3,4-tetrahydroquinazoline-7-carboxamide hydrochloride] | < 1000 nM | – | < 1000 nM | 1000 to 10000 nM | 1000 to 10000 nM | 1000 to 10000 nM
14 | C[C@H]1c2ccc(C(=O)NCc3c(F)cc(F)cc3F)cc2N(Cc2c(N)ccc(F)c2F)C(=O)N1C [Example 285, (S)-1-(6-amino-2,3-difluorobenzyl)-3,4-dimethyl-2-oxo-N-(2,4,6-trifluorobenzyl)-1,2,3,4-tetrahydroquinazoline-7-carboxamide] | < 1000 nM | – | < 1000 nM | < 1000 nM | < 1000 nM | < 1000 nM
15 | COc1cc(F)c(CN2C(=O)N(C)[C@@H](C)c3ccc(C(=O)NCc4c(F)cc(F)cc4F)cc32)c(Cl)c1 [Example 293, (S)-1-(2-chloro-6-fluoro-4-methoxybenzyl)-3,4-dimethyl-2-oxo-N-(2,4,6-trifluorobenzyl)-1,2,3,4-tetrahydroquinazoline-7-carboxamide] | < 1000 nM | – | < 1000 nM | < 1000 nM | < 1000 nM | < 1000 nM
